# In ChEMBL document CHEMBL1144290, “Discovery and structure-activity relationships of novel selective norepinephrine and dual serotonin/norepinephrine reuptake inhibitors” (Bioorg Med Chem Lett, 2005):
# Columns and labels:
# [1] = Inhibitory constant against Serotonin transporter
# [2] = Inhibitory constant determined against Norepinephrine transporter
# [3] = target: Sodium-dependent dopamine transporter (Homo sapiens) (UniProt Q01959); assay: Displacement of dopamine by the compound against dopamine transporter was determined at 1000 nM
# [4] = Inhibitory constant against Dopamine transporter
# [5] = target: Sodium-dependent serotonin transporter (Homo sapiens) (UniProt P31645); assay: Displacement of serotonin by the compound against serotonin transporter was determined
# Sodium-dependent serotonin transporter (Homo sapiens), sequence (P31645 whole entry, looked up): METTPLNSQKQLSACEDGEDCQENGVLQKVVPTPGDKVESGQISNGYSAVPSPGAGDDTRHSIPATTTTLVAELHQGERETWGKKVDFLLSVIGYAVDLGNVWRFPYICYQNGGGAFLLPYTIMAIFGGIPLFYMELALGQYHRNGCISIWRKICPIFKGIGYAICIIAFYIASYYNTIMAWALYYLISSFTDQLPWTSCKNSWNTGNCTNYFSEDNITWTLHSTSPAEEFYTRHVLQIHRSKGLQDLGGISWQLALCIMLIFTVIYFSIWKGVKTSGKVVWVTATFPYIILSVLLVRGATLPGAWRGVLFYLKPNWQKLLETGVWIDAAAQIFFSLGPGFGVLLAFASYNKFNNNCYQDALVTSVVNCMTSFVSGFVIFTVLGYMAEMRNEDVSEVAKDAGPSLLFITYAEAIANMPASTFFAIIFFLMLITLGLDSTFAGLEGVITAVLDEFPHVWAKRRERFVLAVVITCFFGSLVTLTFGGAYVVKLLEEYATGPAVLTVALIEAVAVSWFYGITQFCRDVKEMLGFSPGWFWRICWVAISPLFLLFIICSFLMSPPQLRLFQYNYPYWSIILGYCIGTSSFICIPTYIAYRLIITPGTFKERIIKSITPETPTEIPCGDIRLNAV
# Sodium-dependent dopamine transporter (Homo sapiens), sequence (Q01959 whole entry): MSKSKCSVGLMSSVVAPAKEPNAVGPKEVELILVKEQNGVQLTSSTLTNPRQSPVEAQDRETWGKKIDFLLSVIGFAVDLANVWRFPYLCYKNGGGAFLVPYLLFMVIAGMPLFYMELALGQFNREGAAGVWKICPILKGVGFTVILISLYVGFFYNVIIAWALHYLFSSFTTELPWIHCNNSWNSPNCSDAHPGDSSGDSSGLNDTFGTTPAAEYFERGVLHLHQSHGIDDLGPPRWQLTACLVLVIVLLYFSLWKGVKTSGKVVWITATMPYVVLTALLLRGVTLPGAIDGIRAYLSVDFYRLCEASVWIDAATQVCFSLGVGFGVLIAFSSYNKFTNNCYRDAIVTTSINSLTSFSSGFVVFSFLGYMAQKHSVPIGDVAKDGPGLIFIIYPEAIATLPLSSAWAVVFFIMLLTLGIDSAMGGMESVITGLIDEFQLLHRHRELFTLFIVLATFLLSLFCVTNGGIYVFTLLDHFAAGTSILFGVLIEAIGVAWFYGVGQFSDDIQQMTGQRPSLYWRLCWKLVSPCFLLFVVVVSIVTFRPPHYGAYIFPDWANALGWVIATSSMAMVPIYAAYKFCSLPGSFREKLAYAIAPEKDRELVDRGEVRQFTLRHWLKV
SMILES,Ki [1],Ki [2],Ki [3],Ki [4],Ki [5]
COc1ccccc1S[C@@H](c1ccccc1)[C@@H]1CNCCO1 (stereo in doubt; 14) [listing 1 of 2 here],1.2 nM,10.7 nM,,,
Cc1cccc(S[C@@H](c2ccccc2)[C@@H]2CNCCO2)c1,3.2 nM,109 nM,> 200 nM,,
COc1ccccc1S[C@@H](c1ccccc1)[C@@H]1CNCCO1 (stereo in doubt; 14) [listing 2 of 2 here],,,> 200 nM,,
c1ccc(S[C@@H](c2ccccc2)[C@@H]2CNCCO2)cc1,36 nM,17.6 nM,,522 nM,
COc1ccccc1S[C@@H](c1ccccc1)[C@@H]1CNCCO1 (stereo in doubt; form 2) [listing 1 of 2 here],,,> 200 nM,,
COc1ccccc1S[C@@H](c1ccccc1)[C@@H]1CNCCO1 (stereo in doubt; form 1) [listing 1 of 2 here],,,> 200 nM,,
CCOc1ccccc1O[C@@H](c1ccccc1)[C@@H]1CNCCO1,,,> 200 nM,,> 100 nM
Cc1ccc(S[C@@H](c2ccccc2)[C@@H]2CNCCO2)cc1,,364 nM,> 200 nM,,> 100 nM
COc1ccccc1S[C@@H](c1ccccc1)[C@@H]1CNCCO1 (stereo in doubt; form 2) [listing 2 of 2 here],1.5 nM,24.6 nM,,,
COc1ccccc1S[C@@H](c1ccccc1)[C@@H]1CNCCO1 (stereo in doubt; form 1) [listing 2 of 2 here],66.2 nM,1.7 nM,,,
Cc1ccccc1S[C@@H](c1ccccc1)[C@@H]1CNCCO1,0.2 nM,8.3 nM,,227 nM,
